Measured values as given in US6599944B1, “Ophtalmic compound with extended dwell time on the eye” (Bausch & Lomb Incorporated, priority 1996, dated 2003).

System: eye of experimental rabbits
Experiment: long-term (5 weeks) eye tolerability test of preserved ophthalmic gel compositions
Assay type: in vivo, rabbits (Charles River)
Protocol: Long-term tests were carried out on experimental rabbits (Charles River) with the compositions of Example 1 and 2. In parallel, comparative tests were carried out with a corresponding control group in which the compositions employed were in every respect the same but differed with regard to the preservative. Instead of benzyllauryldimethylammonium chloride, on the one hand benzalkonium chloride was used in the same concentration, and on the other hand, thiomersal (standard concentration) =40 μg/g was used.

[1] = Carbopol gel, benzalkonium chloride in same concentration as Examples 1 and 2, thiomersal 40 μg/g

C[CH2][Hg][S]c1ccccc1C(=O)[O-].[Na+] [thiomersal]
damage to the tissue of the eye at the end of the test [1]: in some cases also damage to the eye | irritation in the eye at the end of the test [1]: severe irritation | rabbits showing severe irritation at the end of the test (control groups with other preservative): seven of eight
